Experimental data reported in ChEMBL document CHEMBL3217667, “Extended side chain analogues of 8-aminoquinolines: Synthesis and evaluation of antiprotozoal, antimicrobial, -hematin inhibition, and cytotoxic activities” (Medchemcomm, 2011).
The source made the active and inactive calls. The calls are words filed in the database; no cut-off is given here.

Experiments:
[1] = Inhibition of beta-hematin formation after 16 hrs; type: physicochemical
Plasma = assay: Half life in human plasma; type: ADME, cell-free
Vero = assay: Cytotoxicity against African green monkey Vero cells by neutral red uptake assay; type: cell-based; conditions: Chlorocebus sabaeus
Leishmania donovani = assay: Antileishmanial activity against Leishmania donovani promastigotes by Alamar Blue assay; type: functional, organism-based
Plasmodium falciparum [2] = assay: Antimalarial activity against chloroquine-resistant Plasmodium falciparum W2 by lactate dehydrogenase assay; type: functional, organism-based
[3] = tested on: Mycobacterium intracellulare; assay: Antibacterial activity against Mycobacterium intracellulare; type: functional, organism-based
[4] = tested on: Mycobacterium intracellulare; assay: Antibacterial activity against Mycobacterium intracellulare up to 20 ug/ml; type: functional, organism-based
Nakaseomyces glabratus = assay: Antifungal activity against Candida glabrata by broth microdilution assay; type: functional, organism-based
Escherichia coli = assay: Antibacterial activity against Escherichia coli; type: functional, organism-based
Pichia kudriavzevii = assay: Antifungal activity against Candida krusei by broth microdilution assay; type: functional, organism-based
Candida albicans = assay: Antifungal activity against Candida albicans by broth microdilution assay; type: functional, organism-based
SK-MEL = assay: Cytotoxicity against human SK-MEL cells by neutral red uptake assay; type: cell-based
BT-549 = assay: Cytotoxicity against human BT549 cells by neutral red uptake assay; type: cell-based
KB = assay: Cytotoxicity against human KB cells by neutral red uptake assay; type: cell-based
[5] = Selectivity index, ratio of IC50 for African green monkey Vero cells to IC50 for chloroquine-sensitive Plasmodium falciparum D6; type: toxicity, cell-based; conditions: read-out: Ratio IC50
Cryptococcus neoformans [6] = assay: Antifungal activity against Cryptococcus neoformans by broth microdilution assay; type: functional, organism-based
Aspergillus fumigatus = assay: Antifungal activity against Aspergillus fumigatus by broth microdilution assay; type: functional, organism-based
Plasmodium falciparum [7] = assay: Antimalarial activity against chloroquine-sensitive Plasmodium falciparum D6 by lactate dehydrogenase assay; type: functional, organism-based
Staphylococcus aureus [8] = assay: Antibacterial activity against Staphylococcus aureus; type: functional, organism-based
Plasmodium berghei [9] = assay: Antimalarial activity against Plasmodium berghei infected in mouse assessed as reduction in parasitemia at 100 mg/kg/day, po for 4 days measured up to day 14; type: functional
Pseudomonas aeruginosa = assay: Antibacterial activity against Pseudomonas aeruginosa; type: functional, organism-based
Staphylococcus aureus [10] = assay: Antibacterial activity against methicillin-resistant Staphylococcus aureus; type: functional, organism-based
SK-OV-3 = assay: Cytotoxicity against human SKOV3 cells by neutral red uptake assay; type: cell-based
[11] = Selectivity index, ratio of IC50 for African green monkey Vero cells to IC50 for chloroquine-resistant Plasmodium falciparum W2; type: toxicity, cell-based; conditions: read-out: Ratio IC50
LLC-PK1 = assay: Cytotoxicity against pig LLC-PK1 cells by neutral red uptake assay; type: cell-based; conditions: Sus scrofa
Staphylococcus aureus [12] = assay: Antibacterial activity against Staphylococcus aureus up to 20 ug/ml; type: functional, organism-based
Cryptococcus neoformans [13] = assay: Antifungal activity against Cryptococcus neoformans up to 20 ug/ml by broth microdilution assay; type: functional, organism-based
Plasmodium berghei [14] = assay: Antimalarial activity against Plasmodium berghei infected in mouse assessed as reduction in parasitemia at 10 mg/kg/day, po for 4 days measured up to day 7; type: functional, organism-based
Plasmodium berghei [15] = assay: Antimalarial activity against Plasmodium berghei infected in mouse assessed as reduction in parasitemia at 50 mg/kg/day, po for 4 days measured up to day 60 relative to control; type: functional; design: scale not given: the % may be the effect or the level left
Staphylococcus aureus [16] = assay: Antibacterial activity against methicillin-resistant Staphylococcus aureus up to 20 ug/ml; type: functional, organism-based
Plasmodium berghei [17] = assay: Antimalarial activity against Plasmodium berghei infected in mouse assessed as reduction in parasitemia at 25 mg/kg/day, po for 4 days measured up to day 60 relative to control; type: functional; design: scale not given: the % may be the effect or the level left
Plasmodium berghei [18] = assay: Antimalarial activity against Plasmodium berghei infected in mouse assessed as reduction in parasitemia at 100 mg/kg/day, po for 4 days measured up to day 60 relative to control; type: functional; design: scale not given: the % may be the effect or the level left
[19] = Plasmodium falciparum, W2, read-out: IC50
[20] = Plasmodium falciparum, D6, read-out: IC50

Structure (SMILES) | IC50 [1] | IC50 (Vero) | IC90 (Leishmania donovani) | IC50 (Plasmodium falciparum [2]; [19]) | Activity [4] | Activity (Nakaseomyces glabratus) | Activity (Escherichia coli) | Activity (Pichia kudriavzevii) | Activity (Candida albicans) | IC50 (SK-MEL) | IC50 (BT-549) | IC50 (KB) | selectivity ratio [5] | Activity (Aspergillus fumigatus) | IC50 (Plasmodium falciparum [7]; [20]) | Activity (Plasmodium berghei [9]) | Activity (Pseudomonas aeruginosa) | IC50 (Leishmania donovani) | IC50 (SK-OV-3) | IC50 (LLC-PK1) | other results
COc1cc(NC(C)CCCN)c2ncccc2c1 (configuration not stated) [PRIMAQUINE] | > 1000 µM | > 23.8 µg/mL | inactive |  |  |  |  |  |  |  |  |  |  |  |  |  |  |  |  |  | t1/2 (Plasma): 4 h
CCCCCCCCOc1c(OC)cc(NC(C)CCCNC(C)CCCN)c2nccc(CC)c12.Cl (configuration not stated) | 15.7 µM | > 23.8 µg/mL | 32 µg/mL | 0.82 µg/mL | inactive | inactive | inactive | inactive | inactive | > 23.8 µg/mL | > 23.8 µg/mL | > 23.8 µg/mL | > 25.8 | inactive | 0.92 µg/mL | inactive | inactive | 17 µg/mL | > 23.8 µg/mL | > 23.8 µg/mL | IC50 [3]: > 20 µg/mL; IC50 (Cryptococcus neoformans [6]): 8.5 µg/mL; MFC (Cryptococcus neoformans [6]): 20 µg/mL; MIC (Cryptococcus neoformans [6]): 20 µg/mL; IC50 (Staphylococcus aureus [8]): 14.5 µg/mL; IC50 (Staphylococcus aureus [10]): 10.4 µg/mL; MBC (Staphylococcus aureus [10]): 20 µg/mL; MIC (Staphylococcus aureus [10]): 20 µg/mL; selectivity ratio [11]: > 29; Activity (Staphylococcus aureus [12]): inactive
CCCCOc1c(OC)cc(NC(C)CCCNC(C)CCCN)c2nccc(CC)c12.Cl (configuration not stated) | 10.2 µM | > 23.8 µg/mL | 7 µg/mL | 0.37 µg/mL | inactive | inactive | inactive | inactive | inactive | > 23.8 µg/mL | > 23.8 µg/mL | > 23.8 µg/mL | > 39.6 | inactive | 0.6 µg/mL | inactive | inactive | 3.5 µg/mL | > 23.8 µg/mL | > 23.8 µg/mL | Activity (Cryptococcus neoformans [13]): inactive; IC50 [3]: > 20 µg/mL; IC50 (Cryptococcus neoformans [6]): 7.9 µg/mL; MIC (Cryptococcus neoformans [6]): 20 µg/mL; IC50 (Staphylococcus aureus [8]): 13.7 µg/mL; MBC (Staphylococcus aureus [8]): 20 µg/mL; MIC (Staphylococcus aureus [8]): 20 µg/mL; IC50 (Staphylococcus aureus [10]): 12.5 µg/mL; MBC (Staphylococcus aureus [10]): 20 µg/mL; MIC (Staphylococcus aureus [10]): 20 µg/mL; selectivity ratio [11]: > 64.2
COc1cc(NC(C)CCCNC(C)CCCNC(C)CCCNC(C)CCCN)c2ncccc2c1.Cl (configuration not stated) | 75 µM | > 23.8 µg/mL | 40 µg/mL | 1.3 µg/mL | inactive | inactive | inactive | inactive | inactive | > 23.8 µg/mL | > 23.8 µg/mL | > 23.8 µg/mL | > 10.3 | inactive | 2.3 µg/mL | 100% | inactive | 5 µg/mL | > 23.8 µg/mL | > 23.8 µg/mL | Activity (Plasmodium berghei [14]): Active; Activity (Plasmodium berghei [15]): 100%; Activity (Staphylococcus aureus [16]): inactive; Activity (Cryptococcus neoformans [13]): inactive; Activity (Plasmodium berghei [17]): 100%; Activity (Plasmodium berghei [18]): 100%; selectivity ratio [11]: > 18.3
COc1cc(NC(C)CCCNC(C)CCCN)c2nc(C(C)(C)C)ccc2c1.Cl (configuration not stated) | 7.5 µM | > 23.8 µg/mL | 7.2 µg/mL | 0.12 µg/mL | inactive | inactive | inactive | inactive | inactive | > 23.8 µg/mL | > 23.8 µg/mL | > 23.8 µg/mL | > 125 | inactive | 0.19 µg/mL | 100% | inactive | 2.8 µg/mL | > 23.8 µg/mL | > 23.8 µg/mL | Activity (Plasmodium berghei [14]): Active; Activity (Plasmodium berghei [15]): 100%; Activity (Plasmodium berghei [17]): 100%; IC50 (Cryptococcus neoformans [6]): 10 µg/mL; MFC (Cryptococcus neoformans [6]): 20 µg/mL; MIC (Cryptococcus neoformans [6]): 20 µg/mL; Activity (Plasmodium berghei [18]): 100%; IC50 (Staphylococcus aureus [10]): 6.5 µg/mL; MBC (Staphylococcus aureus [10]): 20 µg/mL; MIC (Staphylococcus aureus [10]): 10 µg/mL; selectivity ratio [11]: > 198
COc1cc(NC(C)CCCNC(C)CCCNC(C)CCCN)c2nc(C(C)(C)C)ccc2c1.Cl (configuration not stated) | > 1000 µM | > 23.8 µg/mL | 4 µg/mL |  |  | inactive | inactive | inactive | inactive | > 23.8 µg/mL | > 23.8 µg/mL | > 23.8 µg/mL |  | inactive |  | 100% | inactive | 1.6 µg/mL | > 23.8 µg/mL | > 23.8 µg/mL | Activity (Plasmodium berghei [14]): Active; Activity (Plasmodium berghei [15]): 100%; Activity (Staphylococcus aureus [16]): inactive; IC50 (Plasmodium falciparum [2]): Not Active; IC50 [3]: 9 µg/mL; MBC [3]: 20 µg/mL; MIC [3]: 20 µg/mL; Activity (Plasmodium berghei [17]): 100%; IC50 (Cryptococcus neoformans [6]): 7.5 µg/mL; MFC (Cryptococcus neoformans [6]): 20 µg/mL; MIC (Cryptococcus neoformans [6]): 20 µg/mL; Activity (Plasmodium berghei [18]): 100%; IC50 (Plasmodium falciparum [7]): Not Active
COc1cc(NC(C)CCCNC(C)CCCN)c2ncccc2c1.Cl (configuration not stated) | 18.5 µM | > 23.8 µg/mL | inactive | 0.8 µg/mL | inactive | inactive | inactive | inactive | inactive | > 23.8 µg/mL | > 23.8 µg/mL | > 23.8 µg/mL | > 41.7 | inactive | 0.57 µg/mL | 100% | inactive | 32 µg/mL | > 23.8 µg/mL | > 23.8 µg/mL | Activity (Plasmodium berghei [14]): Active; Activity (Plasmodium berghei [15]): 100%; Activity (Staphylococcus aureus [16]): inactive; Activity (Cryptococcus neoformans [13]): inactive; IC50 [3]: 10 µg/mL; Activity (Plasmodium berghei [17]): 100%; Activity (Plasmodium berghei [18]): 100%; selectivity ratio [11]: > 29.7
COc1cc(NC(C)CCCNC(C)CCCNC(C)CCCN)c2ncccc2c1.Cl (configuration not stated) | 75 µM | > 23.8 µg/mL | 40 µg/mL | 1.5 µg/mL | inactive | inactive | inactive | inactive | inactive | > 23.8 µg/mL | > 23.8 µg/mL | > 23.8 µg/mL | > 9.1 | inactive | 2.6 µg/mL | 100% | inactive | 4.2 µg/mL | > 23.8 µg/mL | > 23.8 µg/mL | Activity (Plasmodium berghei [14]): Active; Activity (Plasmodium berghei [15]): 100%; Activity (Staphylococcus aureus [16]): inactive; Activity (Cryptococcus neoformans [13]): inactive; Activity (Plasmodium berghei [17]): 100%; Activity (Plasmodium berghei [18]): 100%; selectivity ratio [11]: > 15.8
